Experimental data as given in patent US7456197B2, “Pyridinium cationic lipids as gene transfer agents” (The Texas A&M University System, priority 2003, dated 2008).
Entries after “also recorded” stand apart in the source; their conditions may differ.

Key:
[1] = Critical (phase transition) temperature Tc by differential scanning calorimetry; assay type: physicochemical; details: for Tc (critical temperature), Pure: pure lipid; for Tc (phase transition temperature): lipids 21 and 25, DSC, heating rate 5° C./minute
Description: General. Melting points for the diols and the phase transition temperature Tc for the cationic lipids were determined by differential scanning calorimetry (DSC), using a TA-Instruments Q100 DSC, and a heating rate of 5° C./minute. The IR spectra were recorded on a Nicolet Avatar 360 FTIR spectrophotometer in the range 650-4000 cm^−1 using a ZnSe—attenuated total reflectance (ATR) accessory. The compounds were solved in a small amount of solvent (MeOH for the diols, CHCl3 for the lipids), and the resulted solutions were left to evaporate to dryness on the surface of the ZnSe crystals of the ATR accessory. The NMR spectra were recorded at ≈303 K with a Varian Inova spectrometer equipped with a 5 mm indirect detection probe, operating at 500 MHz for ^1H-NMR and at 125 MHz for ^13C-NMR. Chemical shifts are reported as δ values, using TMS as internal standard for proton spectra and the solvent resonance for carbon spectra. Assignments were made based on signal intensity, selective decoupling, COSY (^1H-^1H) and HETCOR (^1H-^13C) sequences. Elemental analyses were performed by combustion, using a Perkin Elmer 2400 Series II CHNS analyser.
(§1) Dioleoylphosphatidylethanolamine (DOPE), cholesterol (CHOL), N-(2,3-dioleoyloxypropyl)-N,N,N-trimethylammonium chloride (DOTAP) were commercial products. The purity of the lipids was checked by thin layer chromatography and also by differential scanning calorimetry (DSC), which was also used for determining the critical temperature Tc. For the preparation of the liposomes a protocol optimized for this type of compounds was adopted as follows. The cationic lipid (with or without helper lipid) was dissolved in chloroform/methanol (2/1, v/v) to reach a final concentration of 1 mM for the charged species. From this stock solution 50 μL were aliquoted in a 1 mL tube and the solvent was evaporated in a SpeedVac evaporator, under vacuum, for 1 h. The dried lipid film was prepared by removing the traces of organic solvent in a dessicator, over Drierite®, under vacuum, overnight. The film was hydrated with 500 μL sterile phosphate buffer saline (PBS) the tube was purged with sterile N2, and vortexed for 1 minute. The liposomes were generated by sonicating the tube in a water bath sonicator for 5-30 minutes at 62° C. and at 37° C. for DOTAP. After sonication the preparations were allowed to reach room temperature.
Materials and Methods. Melting points for the diols, acetates and ketals were determined on a Boetius heating plate microscope and are uncorrected. For the cationic lipids 21 and 25 the phase transition temperature Tc was determined by differential scanning calorimetry (DSC), using a TA-Instruments Q100 DSC, and a heating rate of 5° C./minute. The IR spectra were recorded on a Nicolet Avatar 360 FTIR spectrophotometer, in the range 650-4000 cm^−1, using a ZnSe—attenuated total reflectance (ATR) accessory. The compounds were solved in a small amount of solvent (MeOH for the diols, CHCl3 for the esters), the resulted solutions being left to evaporate to dryness on the surface of the ZnSe crystals of the ATR accessory. This technique was imposed by the poor results obtained in transmission mode for some of the compounds, due to the lack of crystallization, hygroscopicity and other problems related with working with KBr pellets. The NMR spectra were recorded at ≈303 K with a Varian Gemini 300BB spectrometer operating at 300 MHz for ^1H and at 75 MHz for ^13C. Chemical shifts are reported as δ values, using TMS as internal standard for proton spectra and the solvent resonance for carbon spectra: 77.00 ppm in CDCl3, 39.50 ppm in DMSO-d6, the line from 123.50 ppm in pyridine-d5, 62.80 ppm in nitromethane-d3, 30.10 ppm in dimethylformamide-d7. Assignments were made based on signal intensity, selective decoupling and COSY (^1H-^1H) and HETCOR (^1H-^13C) sequences. Nitrogen elemental analysis was performed by combustion, mixing the samples with small amounts of quartz sand.

[2] = tested on: lung cancer cell line NCI-H23; experiment: Luciferase (pGL3) transfection efficiency of lipoplexes, NCI-H23; assay type: cell-based, human; details: for transfection efficiency (in words): cholesterol as helper lipid 1:1, charge ratio lipid/DNA 2:1; for transfection efficiency, counterion study: 5Myr/Chol 1:1, PBS, sonicated two sequences of 15 minutes, FIG. 5
Description: (§2) The three series of cationic lipids newly synthesized were assessed for their transfection efficiency in vitro, using the experimental conditions optimized in a previous study.^23 Essentially the cationic lipids were mixed with cholesterol at a 1:1 molar ratio, dissolved in chloroform/methanol and dried under vacuum to generate a lipid film. The dried lipid film was hydrated with sterile phosphate buffer isotonic saline with pH=7.4 (PBS) and sonicated to yield cationic liposomes. The resulting liposomal solution was allowed to react with a DNA solution to form the final cationic lipid-DNA complexes (lipoplexes), which were assessed for transfection efficiency using different cell cultures. We used a pGL3 plasmid (Promega, Madison, Wisc.), encoding a firefly luciferase gene under the control of the constitutively active SV40 promoter as the reporter for the transfection efficiency. An optimal^23 electrostatic charge ratio cationic lipid/DNA of 2:1 was used in all preparations. […] The ability of these new cationic lipids to generate relatively small cationic liposomes could be attributed to the relatively large curvature radius induced in the bilayer by the bulky pyridinium cationic head.
as §1
For generating the lipoplexes, 1.4-2.8 μL plasmid DNA solution (0.5 μg/μL) was diluted with 100 μL Optimem®. A liposome solution was prepared separately by diluting the initial liposomal stock solution (0.1 mM in cationic lipid) with Optimem® in specified proportions, to reach a final volume of 50 μL. Over this liposome solution 50 μL of the DNA stock solution was added, the tube was incubated for 30 minutes at room temperature and then the content diluted with 500 μL Optimem® (final volume of the lipoplex stock solution: 600 μL).
The lipoplexes was tested for their transfection properties over five different cancer cell lines—breast carcinoma (MCF-7 and MDA-Mb231), lung carcinoma (NCI-H23), prostate carcinoma (DU-145) and brain carcinoma (SWB-95). The cells were maintained in 10% fetal bovine serum (FBS)—enriched RPMI 1640 at 37° C. and 5% CO2 in a humidified atmosphere. Twenty-four hours prior to transfection the cells were transferred in 96-wells microtiter plate at a density of 20,000 cells/well. Each well received 100 μL medium and the plate was incubated in the same conditions. All experiments were done in triplicate or quadruplicate.
Immediately before transfection the medium was removed from each well and the cells were briefly washed with 200 μL sterile PBS. After removal of the PBS each well received 100 μL lipoplex stock solution and the plate was placed in the incubator for 1 hour. Then, 100 μL medium was added to each well and the plate was incubated for 24 hours. […]

[3] = Cationic liposome size by dynamic light scattering; assay type: physicochemical
Description: as §2, §1

cancer cell line NCI-H23 = experiment: WST-1 viability assay of transfected cells; assay type: cell-based, human; details: NCI-H23 transfected with lipoplexes, Chol 1:1; FIG. 6
Description: FIG. 6. Viability assay results for the cancer cell line NCI-H23 transfected with 5AMyr-5EMyr and DOTAP (Cl^−)-based lipoplexes. The other characteristics were the same as in the transfection experiment represented in FIG. 5.
In order to assess the cytotoxicity associated with every anion, a WST-1^28 viability assay was conducted in parallel.

[4] = cholesterol at 1:1 molar ratio to cationic lipid
[5] = molar ratio of cholesterol to lipid halved

Row | Structure (SMILES) | Tc (critical temperature), Pure [1] [°C] | Tc (critical temperature), With cholesterol (1:1 molar ratio) ([1]; 1:1 molar ratio) [°C] | transfection efficiency (in words) [2] | further results
1 | CCCCCCCCCCCCCC(=O)OCC(C[n+]1c(C)cc(C)cc1C)OC(=O)CCCCCCCCCCCCC.F[P-](F)(F)(F)(F)F (stereo not drawn) [Lipid 3AMyr, 1-(2,3-dimyristoyloxypropyl)-2,4,6-trimethylpyridinium hexafluorophosphate] | 121.3 | 112.5 | highest transfection peaks | Tc (critical temperature), With DOPE (1:1 molar ratio) ([1]; with DOPE, 1:1 molar ratio): 107.7 °C; average size of the cationic vesicles [3, 4]: 132 nm; average size of the cationic vesicles [3, 5]: 89 nm
2 | CCCCCCCC/C=C\CCCCCCCC(=O)OCC(COC(=O)CCCCCCC/C=C\CCCCCCCC)[n+]1c(C)cc(C)cc1C.F[P-](F)(F)(F)(F)F [Lipid 5AOle, 1-(1,3-dioleoyloxypropane-2-yl)-2,4,6-trimethylpyridinium hexafluorophosphate] | 17.0 | 31.0 | low transfection efficiency | 
3 | CC(=O)OCC(COC(C)=O)[n+]1c(C)cc(C)cc1C.F[B-](F)(F)F |  |  |  | melting point: 110 to 111 °C
4 | CCCCCCCCCCCC(=O)Oc1ccc(CC[n+]2c(C)cc(C)cc2C)cc1OC(=O)CCCCCCCCCCC.F[P-](F)(F)(F)(F)F [Lipid 7ALau, 1-(3,4-dilauroyloxyphenylethyl)-2,4,6-trimethylpyridinium hexafluorophosphate] | 140.7 | 126.9 | best transfection efficiency | transfection efficiency relative to another derivative of series 7 ([2]; cholesterol 1:1, FIG. 2): about five times more active than the decanoyl derivative 7ACpc; also recorded: about ten times more efficient than the oleoyl derivative 7AOle
5 | CCCCCCCCCCCCCC(=O)OCC(COC(=O)CCCCCCCCCCCCC)[n+]1c(C)cc(C)cc1C.[O-][Cl+3]([O-])([O-])[O-] [Lipid 5BMyr, 1-(1,3-dimyristoyloxypropane-2-yl)-2,4,6-trimethylpyridinium perchlorate] | 60.2 | 58.4 |  | transfection efficiency, counterion study [2]: most efficient lipoplexes; cytotoxicity (WST-1 viability) (cancer cell line NCI-H23): more cytotoxic
6 | CCCCCCCCCCCCCC(=O)OCC(COC(=O)CCCCCCCCCCCCC)[n+]1c(C)cc(C)cc1C.[I-] [Lipid 5EMyr, 1-(1,3-dimyristoyloxypropane-2-yl)-2,4,6-trimethylpyridinium iodide] | 60.8 | 80.1 |  | transfection efficiency, counterion study [2]: followed by the hexafluorophosphate 5AMyr, chloride 5DMyr, tetrafluoroborate 5CMyr, and iodide 5EMyr; cytotoxicity (WST-1 viability) (cancer cell line NCI-H23): more cytotoxic
7 | CCCCCCCC/C=C\CCCCCCCC(=O)OCC(C[n+]1c(C)cc(C)cc1C)OC(=O)CCCCCCC/C=C\CCCCCCCC.F[P-](F)(F)(F)(F)F (stereo not drawn) [Lipid 3AOle, 1-(2,3-dioleoyloxypropyl)-2,4,6-trimethylpyridinium hexafluorophosphate] | 67.9 | 58.5 | secondary peak | average size of the cationic vesicles [3, 4]: 113 nm; average size of the cationic vesicles [3, 5]: 103 nm
8 | CCCCCCCCCCCCCC(=O)OCC(COC(=O)CCCCCCCCCCCCC)[n+]1c(C)cc(C)cc1C.F[B-](F)(F)F [Lipid 5CMyr, 1-(1,3-dimyristoyloxypropane-2-yl)-2,4,6-trimethylpyridinium tetrafluoroborate] | 58.4 | 55.2 |  | cytotoxicity (WST-1 viability) (cancer cell line NCI-H23): minimum cytotoxicity
9 | CCCCCCCC/C=C\CCCCCCCC(=O)OCC(C[n+]1c(C)cc(C)cc1C)OC(=O)CCCCCCC/C=C\CCCCCCCC.F[B-](F)(F)F (stereo not drawn) [Lipid 21AbO, 1-(2,3-Dioleoyloxypropyl)-2,4,6-trimethylpyridinium tetrafluoroborate] |  |  |  | Tc (phase transition temperature) [1]: 52 °C
10 | CCCCCCCCCCCCCCCCCC(=O)OCC(COC(=O)CCCCCCCCCCCCCCCCC)[n+]1c(C)cc(C)cc1C.F[P-](F)(F)(F)(F)F [Lipid 5ASte, 1-(1,3-distearoyloxypropane-2-yl)-2,4,6-trimethylpyridinium hexafluorophosphate] | 79.6 | 66.1 |  | 
11 | CCCCCCCCCCCCCCCC(=O)Oc1ccc(CC[n+]2c(C)cc(C)cc2C)cc1OC(=O)CCCCCCCCCCCCCCC.F[P-](F)(F)(F)(F)F [Lipid 7APal, 1-(3,4-dipalmitoyloxyphenylethyl)-2,4,6-trimethylpyridinium hexafluorophosphate] | 140.0 | 124.1 |  | 
12 | CCCCCCCCCCCCCCCC(=O)OCC(COC(=O)CCCCCCCCCCCCCCC)[n+]1c(-c2ccccc2)cc(-c2ccccc2)cc1-c1ccccc1.[O-][Cl+3]([O-])([O-])[O-] [Lipid 25BaP, 1-(1,3-Dipalmitoyloxypropane-2-yl)-2,4,6-triphenylpyridinium perchlorate] |  |  |  | Tc (phase transition temperature) [1]: 125 °C
